# Experimental data published in paper PMC6219668 (Oncotarget, 2018).
# Tested on: panel of nearly 500 cancer cell lines
# Experiment: Cancer Cell Line Encyclopedia profiling, 3-day CellTiter-Glo
# Format: cell-based
# Design: Amax: unit not given here
compound,measurement,setting,value
"CC(=O)c1c(C)c2cnc(Nc3ccc(N4CCNCC4)cn3)nc2n(C2CCCC2)c1=O [Palbociclib, reference compound]",EC50,"Homo sapiens, P3HR-1",> 8 µM
same,EC50,"Homo sapiens, P31-FUJ",> 8 µM
same,EC50,"Homo sapiens, PANC-03-27",> 8 µM
same,EC50,"Homo sapiens, PLC-PRF-5",1.79 µM
same,EC50,"Homo sapiens, Panc 02.03",1.14 µM
same,EC50,"Homo sapiens, Panc 04.03",> 8 µM
same,EC50,"Homo sapiens, Panc1005",> 8 µM
same,EC50,"Homo sapiens, Pfeiffer",6.95 µM
same,EC50,"Homo sapiens, RL95-2",> 8 µM
same,EC50,"Homo sapiens, RT-112",2.29 µM
same,EC50,"Homo sapiens, RVH-421",0.689 µM
same,EC50,"Homo sapiens, Raji",> 8 µM
same,EC50,"Homo sapiens, SAOS-2",> 8 µM
same,EC50,"Homo sapiens, SBC-5",1.11 µM
same,EC50,"Homo sapiens, SCC-25",0.782 µM
same,EC50,"Homo sapiens, SCaBER",> 8 µM
same,EC50,"Homo sapiens, SF-126",> 8 µM
same,EC50,"Homo sapiens, SF-295",> 8 µM
same,EC50,"Homo sapiens, SHP77",> 8 µM
same,EC50,"Homo sapiens, SJRH30",> 8 µM
same,EC50,"Homo sapiens, SJSA-1",> 8 µM
same,EC50,"Homo sapiens, SK-BR-3",> 8 µM
same,EC50,"Homo sapiens, SK-CO-1",> 8 µM
same,EC50,"Homo sapiens, SK-ES1",6.37 µM
same,EC50,"Homo sapiens, SK-HEP1",0.516 µM
same,EC50,"Homo sapiens, SK-LU-1",> 8 µM
same,EC50,"Homo sapiens, SK-MEL-2",> 8 µM
same,EC50,"Homo sapiens, SK-MEL-5",> 8 µM
same,EC50,"Homo sapiens, SK-MEL-24",> 8 µM
same,EC50,"Homo sapiens, SK-MEL-30",> 8 µM
same,EC50,"Homo sapiens, SK-MM-2",2.62 µM
same,EC50,"Homo sapiens, SK-N-AS",1.11 µM
same,EC50,"Homo sapiens, SK-N-DZ",2.73 µM
same,EC50,"Homo sapiens, SK-N-SH",1.25 µM
same,EC50,"Homo sapiens, SK-OV-3",2.22 µM
same,EC50,"Homo sapiens, SKNBE2",4.99 µM
same,EC50,"Homo sapiens, SNU1",> 8 µM
same,EC50,"Homo sapiens, SNU-16",> 8 µM
same,EC50,"Homo sapiens, SNU-182",> 8 µM
same,EC50,"Homo sapiens, SNU-423",2.01 µM
same,EC50,"Homo sapiens, SNU-449",> 8 µM
same,EC50,"Homo sapiens, SNU-C2B",> 8 µM
same,EC50,"Homo sapiens, SU-DHL10",3.42 µM
same,EC50,"Homo sapiens, SU-DHL-8",0.475 µM
same,EC50,"Homo sapiens, SU.86.86",> 8 µM
same,EC50,"Homo sapiens, SUP-T1",> 8 µM
same,EC50,"Homo sapiens, SW48",> 8 µM
same,EC50,"Homo sapiens, SW480",1.24 µM
same,EC50,"Homo sapiens, SW780",0.832 µM
same,EC50,"Homo sapiens, SW900",> 8 µM
same,EC50,"Homo sapiens, SW1353",> 8 µM
same,EC50,"Homo sapiens, SW1990",5.78 µM
same,EC50,"Homo sapiens, SW-403",> 8 µM
same,EC50,"Homo sapiens, SW-620",2.93 µM
same,EC50,"Homo sapiens, T47D",> 8 µM
same,EC50,"Homo sapiens, T98G",> 8 µM
same,EC50,"Homo sapiens, TCC-SUP",2.08 µM
same,EC50,"Homo sapiens, TOV21G",> 8 µM
same,EC50,"Homo sapiens, TOV112D",2.03 µM
same,EC50,"Homo sapiens, Toledo",> 8 µM
same,EC50,"Homo sapiens, U2OS",3.62 µM
same,EC50,"Homo sapiens, U-87 MG",2.01 µM
same,EC50,"Homo sapiens, U-118-MG",0.523 µM
same,EC50,"Homo sapiens, U-937",> 8 µM
same,EC50,"Homo sapiens, UACC-812",> 8 µM
same,EC50,"Homo sapiens, UMUC3",> 8 µM
same,EC50,"Homo sapiens, YKG-1",7.39 µM
same,EC50,"Homo sapiens, ZR-75-30",> 8 µM
same,EC50,Hs766T,1.52 µM
same,EC50,IGR-39,> 8 µM
same,EC50,JHH-2,> 8 µM
same,EC50,JHH-4,> 8 µM
same,EC50,JMSU-1,1.32 µM
same,EC50,KE-97,2.26 µM
same,EC50,KMRC-1,> 8 µM
same,EC50,KMS-26,1.33 µM
same,EC50,LOU-NH91,> 8 µM
same,EC50,LUDLU-1,0.74 µM
same,EC50,NCI-H322,> 8 µM
same,EC50,NCI-H1568,2.63 µM
same,EC50,NCI-H1915,> 8 µM
same,EC50,NCI-H2023,1.12 µM
same,EC50,NCI-H2172,> 8 µM
same,EC50,OCUM1,1.37 µM
same,EC50,OE21,4.75 µM
same,EC50,ONCO-DG-1,> 8 µM
same,EC50,PK-59,1.51 µM
same,EC50,PL45,> 8 µM
same,EC50,SH-10-TC,> 8 µM
same,EC50,SUIT-2,1.18 µM
same,EC50,SUP-M2,> 8 µM
same,EC50,SW579,1.3 µM
same,EC50,SW1271,> 8 µM
same,EC50,TC-71,> 8 µM
same,Amax,a172 (central_nervous_system),3.605
same,Amax,a204 (soft_tissue),-34.4227
same,Amax,a253 (salivary_gland),3.868
same,Amax,a375 (skin),-26.2658
same,Amax,a2058 (skin),2.616
same,Amax,a2780 (ovary),-39.663
same,Amax,gb1 (central_nervous_system),-42.437
same,Amax,gciy (stomach),-7.059
same,Amax,gct (soft_tissue),-52.5722
same,Amax,glc82 (lung),-19.1977
same,Amax,gms10 (central_nervous_system),-27.0424
same,Amax,h4 (central_nervous_system),-32.9184
same,Amax,hcc15 (lung),-12.0125
same,Amax,hcc56 (large_intestine),-4.352
same,Amax,hcc70 (breast),-11.029
same,Amax,hcc78 (lung),-19.9044
same,Amax,hcc1187 (breast),-9.361
same,Amax,hcc1569 (breast),-39.1174
same,Amax,hcc1806 (breast),0.7921
same,Amax,hcc1954 (breast),-54.5847
same,Amax,hcc2935 (lung),-14.5087
same,Amax,hcc4006 (lung),-19.6287
same,Amax,hct15 (large_intestine),-2.41
same,Amax,hct116 (large_intestine),1.94
same,Amax,hec1a (endometrium),-22.7551
same,Amax,hec1b (endometrium),-58.5184
same,Amax,hec59 (endometrium),-33.0687
same,Amax,hec151 (endometrium),-3.536
same,Amax,hec251 (endometrium),-0.6256
same,Amax,hec265 (endometrium),2.121
same,Amax,hel9217 (haematopoietic_and_lymphoid_tissue),11.0391
same,Amax,hep3b217 (liver),6.257
same,Amax,hepg2 (liver),-38.1063
same,Amax,heya8 (ovary),-39.168
same,Amax,hgc27 (stomach),-60.1752
same,Amax,hh (haematopoietic_and_lymphoid_tissue),-43.6309
same,Amax,hle (liver),-2.411
same,Amax,hlf (liver),2.5318
same,Amax,hmc18 (breast),-23.3461
same,Amax,hmcb (skin),-32.1017
same,Amax,hos (bone),-5.005
same,Amax,hpac (pancreas),-39.6565
same,Amax,hs229t (lung),-46.3597
same,Amax,hs294t (skin),-3.363
same,Amax,hs578t (breast),-24.7522
same,Amax,hs683 (central_nervous_system),-14.5926
same,Amax,hs695t (skin),-1.411
same,Amax,hs739t (breast),-16.3381
same,Amax,hs746t (stomach),-17.4326
same,Amax,hs766t (pancreas),-19.984
same,Amax,hs840t (upper_aerodigestive_tract),-48.5098
same,Amax,hs852t (skin),-23.0246
same,Amax,hs895t (skin),-52.8812
same,Amax,hs936t (skin),-33.7794
same,Amax,hs939t (skin),-41.6297
same,Amax,hs944t (skin),-2.178
same,Amax,hsc2 (upper_aerodigestive_tract),2.874
same,Amax,ht29 (large_intestine),-25.1424
same,Amax,ht144 (skin),4.385
same,Amax,ht1080 (soft_tissue),5.952
same,Amax,ht1197 (urinary_tract),6.185
same,Amax,ht1376 (urinary_tract),5.627
same,Amax,ht (haematopoietic_and_lymphoid_tissue),15.5049
same,Amax,hucct1 (biliary_tract),-2.064
same,Amax,huh1 (liver),-48.0113
same,Amax,hupt3 (pancreas),-32.9102
same,Amax,hupt4 (pancreas),-9.371
same,Amax,hut78 (haematopoietic_and_lymphoid_tissue),-6.156
same,Amax,ialm (lung),2.617
same,Amax,igr37 (skin),-4.699
same,Amax,igr39 (skin),3.52
same,Amax,igrov1 (ovary),1.295
same,Amax,imr32 (autonomic_ganglia),-46.7636
same,Amax,ipc298 (skin),-1.835
same,Amax,istmes1 (pleura),-16.4542
same,Amax,istmes2 (pleura),-52.8976
same,Amax,j82 (urinary_tract),-1.0373
same,Amax,jhh2 (liver),-0.7698
same,Amax,jhh4 (liver),0.2039
same,Amax,jhh6 (liver),2.0754
same,Amax,jhos2 (ovary),7.671
same,Amax,jhos4 (ovary),13.7773
same,Amax,jm1 (haematopoietic_and_lymphoid_tissue),-48.4258
same,Amax,jmsu1 (urinary_tract),-46.3166
same,Amax,k029ax (skin),-20.9241
same,Amax,kals1 (central_nervous_system),3.749
same,Amax,karpas299 (haematopoietic_and_lymphoid_tissue),-53.2153
same,Amax,karpas422 (haematopoietic_and_lymphoid_tissue),0.8347
same,Amax,ke39 (stomach),-57.8035
same,Amax,ke97 (haematopoietic_and_lymphoid_tissue),-62.2019
same,Amax,kg1 (haematopoietic_and_lymphoid_tissue),7.475
same,Amax,kle (endometrium),-0.3583
same,Amax,kmbc2 (urinary_tract),-20.7254
same,Amax,kmrc1 (kidney),-29.7335
same,Amax,kms12bm (haematopoietic_and_lymphoid_tissue),-27.7827
same,Amax,kms26 (haematopoietic_and_lymphoid_tissue),-78.7112
same,Amax,kns42 (central_nervous_system),-28.8816
